Here are results for 7 molecules from ChEMBL document CHEMBL1152525, “Synthesis and anti-HIV activity of novel 2',3'-dideoxy-3'-thiacytidine prodrugs” (Bioorg Med Chem, 2009).

One may read the logP as a log measure of how a compound divides between an organic and an aqueous phase. Read a high logP as a more lipophilic compound. For orientation: IC50 means the concentration that gives 50% inhibition. Read a low IC50 as higher potency.

Structures are written as SMILES.

Data set [1] can be described thus: physchem. As to conditions: octanol/water.
Description: Lipophilicity, log P of the compound
A short description of data set [2]: in vitro. As to conditions: human, PBMC.
Description: Cytotoxicity against human PBMC after 7 days by sulforhodamine B assay
Data set [3] deals with Human immunodeficiency virus 1. As to the kind of experiment: microbe, parasite or virus in culture. The following applies: Human immunodeficiency virus 1, 168 h.
Description: Antiviral activity against HIV1 infected in human PBMC assessed as inhibition of viral p24 antigen production after 7 days by ELISA

The molecule `CCCCCCOC(=O)OC[C@H]1O[C@@H](n2ccc(N)nc2=O)CS1` showed a logP in data set [1] of 1.57. In data set [2], this molecule registered a CC50 at 168 h of 0.857 mM. Also, the IC50 in data set [3] worked out at 250 nM.

`CCCOC(=O)OC[C@H]1O[C@@H](n2ccc(N)nc2=O)CS1` registered a logP in data set [1] of 0.2. Moreover, in data set [2], the CC50 at 168 h turned out to be 3.33 mM. In data set [3], the IC50 came out at 300 nM.

In data set [1], `CCCCCOC(=O)OC[C@H]1O[C@@H](n2ccc(N)nc2=O)CS1` gave a lipophilicity (logP) of 1.23. In addition, the CC50 at 168 h in data set [2] was 1.29 mM. This molecule had an IC50 in data set [3] of 65 nM.

In turn, `CCOC(=O)OC[C@H]1O[C@@H](n2ccc(N)nc2=O)CS1` yielded a logP in data set [1] of -0.31. The molecule further came in with a CC50 at 168 h in data set [2] of 3 mM. The molecule also had an IC50 in data set [3] of 200 nM.

For `CCCCOC(=O)OC[C@H]1O[C@@H](n2ccc(N)nc2=O)CS1`, the lipophilicity (logP) in data set [1] was 0.86. The CC50 at 168 h in data set [2] is 4.5 mM. Moreover, in data set [3], the IC50 was 200 nM.

`CCCCCCCCOC(=O)OC[C@H]1O[C@@H](n2ccc(N)nc2=O)CS1` returned a logP in data set [1] of 1.72. In data set [2], this molecule showed a CC50 at 168 h of 0.45 mM. For the same molecule, inhibition in data set [3] was half-maximal at 200 nM (IC50).

The molecule `CC(C)CCOC(=O)OC[C@H]1O[C@@H](n2ccc(N)nc2=O)CS1` returned a logP in data set [1] of -0.15. For the same molecule, the CC50 at 168 h in data set [2] came out at 3.33 mM. Half-maximal inhibition in data set [3] (IC50) required 1270 nM.
